The values that follow come from patent US4432987A, “Crystalline benzenesulfonate salts of sultamicillin” (priority 1982, dated 1984).

Counter-ions that a name gives are not always drawn.

Data set [1] is described as follows: Storage of anhydrous salt under humidity / atmospheric moisture. The format is physicochemical. The text has this:
When 4-chlorobenzenesulfonic acid is used in the above procedure the corresponding anhydrous 4-chlorobenzenesulfonic acid addition salt is obtained.

The nature of data set [2]: Apparent solubility of sultamicillin salts in water and simulated gastric juice (without pepsin, pH 1.2), HPLC. The format is physicochemical. Particulars: for Final pH, Simulated Gastric Juice: final pH of the solubility test in simulated gastric juice; for Final pH, Water: final pH of the solubility test in water; for Apparent Solubility, Simulated Gastric Juice: simulated gastric juice without pepsin, pH 1.2, 30 minutes agitation; for Apparent Solubility, Simulated Gastric Juice / Apparent Solubility, Water: 30 min; for Apparent Solubility, Water: 30 minutes vigorous agitation. Here is the method: The solubility of the salts in water and simulated gastric juice without pepsin (pH 1.2) were compared. Equilibrium solubility was not determined since the compounds are not entirely stable in aqueous systems for the extended time required to reach equilibrium. Therefore, the apparent solubility was determined by vigorous agitation for 30 minutes with the solvent. The resulting mixture was then filtered and the amount of compound in solution determined by high pressure liquid chromatography (HPLC).
(§1) In the solubility and stability studies above samples of the materials were assayed by HPLC using a Chromegabond C-8* column (4.6 mm internal diameter×30 cm.). The mobile phase consisted of 30% by weight acetonitrile in pH 3 phosphate buffer (0.1 M). Flow rate, 1.6 ml/minute. Detection was by UV at 230 nm.

A short description of data set [3]: Stability on storage at 50° C. for three weeks, retained potency (HPLC). The settings on record: 30240 min. The data set is classed as physicochemical. Here is the method: as §1
Data set [4] can be described thus: Stability and solubility of sultamicillin forms. The data set is classed as physicochemical. Particulars: for stability (in words): solid state / handling.
The subject of data set [5] is Sarcina lutea (ATCCC 9341). The settings on record: no beta-lactamase; sulbactam up to 100 μg./ml.
For data set [6], the system named is Pasteurella histolytica (59B010). Particulars: beta-lactamase mediated resistance; high concentrations alone or combined.

As for `CC1(C)S[C@@H]2[C@H](NC(=O)[C@H](N)c3ccccc3)C(=O)N2[C@H]1C(=O)OCOC(=O)[C@@H]1N2C(=O)C[C@H]2S(=O)(=O)C1(C)C`, in data set [1] (48 hours), the “dihydrate formation upon exposure to atmospheric moisture” value is given as “forms a dihydrate”.

For `CC1(C)S[C@@H]2[C@H](NC(=O)[C@H](N)c3ccccc3)C(=O)N2[C@H]1C(=O)OCOC(=O)[C@@H]1N2C(=O)C[C@H]2S(=O)(=O)C1(C)C` [4-Chlorobenzenesulfonate.2H2 O, 1,1-Dioxopenicillanoyloxymethyl 6-[D-(2-amino-2-phenylacetamido)]penicillanate 4-chlorobenzenesulfonate dihydrate], in data set [2] (dihydrate), the “Final pH, Simulated Gastric Juice” value is given as 1.1; the “Final pH, Water” value was 3.8; the “Apparent Solubility, Simulated Gastric Juice” value was 6300 µg/mL; the “Apparent Solubility, Water” value was 3300 µg/mL. Besides, the “potency retained upon storage” value in data set [3] (listed as 4-chlorobenzenesulfonae.2H2 O, dihydrate) came out at 100%.

For `CC1(C)S[C@@H]2[C@H](NC(=O)[C@H](N)c3ccccc3)C(=O)N2[C@H]1C(=O)OCOC(=O)[C@@H]1N2C(=O)C[C@H]2S(=O)(=O)C1(C)C` [Benzenesulfonate.2H2 O, 1,1-Dioxopenicillanoyloxymethyl 6-[D-(2-amino-2-phenylacetamido)]penicillanate benzenesulfonate dihydrate], in data set [2] (benzenesulfonate dihydrate), the “Final pH, Simulated Gastric Juice” value is 2.0; the Final pH, Water is 3.4; the “Apparent Solubility, Simulated Gastric Juice” value is 1800 µg/mL; the “Apparent Solubility, Water” value is 2150 µg/mL. The “potency retained upon storage” value in data set [3] (benzenesulfonate dihydrate) is 97%.

With `CC1(C)S[C@@H]2[C@H](NC(=O)[C@H](N)c3ccccc3)C(=O)N2[C@H]1C(=O)OCOC(=O)[C@@H]1N2C(=O)C[C@H]2S(=O)(=O)C1(C)C` [Hydrochloride, 1,1-Dioxopenicillanoyloxymethyl 6-[D-(2-amino-2-phenylacetamido)]penicillanate hydrochloride], in data set [2] (hydrochloride), the “Final pH, Simulated Gastric Juice” value is 1.12; the “Final pH, Water” value was 2.0; the “Apparent Solubility, Simulated Gastric Juice” value is above 79000 µg/mL; the “Apparent Solubility, Water” value is above 94000 µg/mL. Further, in data set [3] (listed as hydrochloride salt, hydrochloride), the “potency retained upon storage” value is listed as 67%. For the same molecule, the “solubility in water / aqueous systems (in words)” value in data set [4] is on record as “highly soluble in water”. Besides, in data set [4] (aqueous), the “stability in water (in words)” value is “subject to hydrolytic decomposition”. Besides, the “stability (in words)” value in data set [4] (hydrochloride) is on record as “poor solid state stability”.

Take `CC1(C)S[C@@H]2[C@H](NC(=O)[C@H](N)c3ccccc3)C(=O)N2[C@H]1C(=O)OCOC(=O)[C@@H]1N2C(=O)C[C@H]2S(=O)(=O)C1(C)C` [Sultamicillin free base, 1,1-dioxopenicillanoyloxymethyl 6-[D-(2-amino-2-phenylacetamido)]penicillanate]: the “stability (in words)” value in data set [4] is “poor handling characteristics and inadequate stability”.

With `CC1(C)S[C@@H]2[C@H](NC(=O)[C@H](N)c3ccccc3)C(=O)N2[C@H]1C(=O)O` [ampicillin], the “susceptibility / synergy, Sarcina lutea” value in data set [5] is “susceptible”. The “susceptibility / synergy, Pasteurella histolytica” value in data set [6] is “insensitivity”.

As for `CC1(C)S[C@@H]2[C@H](NC(=O)[C@H](N)c3ccccc3)C(=O)N2[C@H]1C(=O)OCOC(=O)[C@@H]1N2C(=O)C[C@H]2S(=O)(=O)C1(C)C` [anhydrous salt, Anhydrous 1,1-Dioxopenicillanoyloxymethyl 6-[D-(2-amino-2-phenylacetamido)]penicillanate benzenesulfonate], in data set [1] (50% relative humidity, 30 hours, by weight), the “water content of dihydrate formed upon storage” value turned out to be 4.5%.

On to `CC1(C)[C@H](C(=O)O)N2C(=O)C[C@H]2S1(=O)=O` [sulbactam, penicillanic acid 1,1-dioxide], for which the “susceptibility / synergy, Sarcina lutea” value in data set [5] was “insensitive to sulbactam at concentrations as high as 100 μg./ml”. Moreover, the “susceptibility / synergy, Pasteurella histolytica” value in data set [6] was “insensitivity”.
